Results reported in ChEMBL document CHEMBL4627293, “Synthesis and in vitro activity of asymmetric indole-based bisamidine compounds against Gram-positive and Gram-negative pathogens” (2020).
Values after ≈ are worked out from the molar mass of the structure shown.

Columns and labels:
Assay type in all cases: functional
[1] = test system: Proteus vulgaris; assay: Antimicrobial activity against Proteus vulgaris ATCC 29905
[2] = test system: Citrobacter freundii; assay: Antimicrobial activity against Citrobacter freundii ATCC 43864
[3] = test system: Klebsiella pneumoniae; assay: Potency index, ratio of MIC for 2-[4-[4-[6-(N,N-dimethylcarbamimidoyl)-1H-indol-2-yl]phenoxy]phenyl]-N,N-dimethyl-1H-indole-6-carboxamidine to MIC for test compound against NDM-1 producing Klebsiella pneumoniae ATCC BAA-2146
[4] = test system: Klebsiella pneumoniae; assay: Antimicrobial activity against ESBL-producing Klebsiella pneumoniae ATCC 700603
[5] = test system: Klebsiella pneumoniae; assay: Potency index, ratio of MIC for 2-[4-[4-[6-(N,N-dimethylcarbamimidoyl)-1H-indol-2-yl]phenoxy]phenyl]-N,N-dimethyl-1H-indole-6-carboxamidine to MIC for test compound against ESBL-producing Klebsiella pneumoniae ATCC 700603
[6] = test system: Providencia rettgeri; assay: Antimicrobial activity against Providencia rettgeri ATCC 31052
[7] = test system: Klebsiella pneumoniae; assay: Antimicrobial activity against NDM-1 producing Klebsiella pneumoniae ATCC BAA-2146
[8] = test system: Enterococcus faecalis; assay: Antimicrobial activity against Vancomycin-sensitive Enterococcus faecalis ATCC 29212
[9] = test system: Klebsiella pneumoniae; assay: Potency index, ratio of MIC for 2-[4-[4-[6-(N,N-dimethylcarbamimidoyl)-1H-indol-2-yl]phenoxy]phenyl]-N,N-dimethyl-1H-indole-6-carboxamidine to MIC for test compound against Klebsiella pneumoniae 7
[10] = test system: Staphylococcus epidermidis; assay: Antimicrobial activity against methicillin-susceptible Staphylococcus epidermidis ATCC 12228
[11] = test system: Staphylococcus aureus; assay: Antimicrobial activity against methicillin-sensitive Staphylococcus aureus ATCC 29213
[12] = test system: Acinetobacter calcoaceticus; assay: Antimicrobial activity against Acinetobacter calcoaceticus ATCC 19606
[13] = test system: Escherichia coli; assay: Potency index, ratio of MIC for 2-[4-[4-[6-(N,N-dimethylcarbamimidoyl)-1H-indol-2-yl]phenoxy]phenyl]-N,N-dimethyl-1H-indole-6-carboxamidine to MIC for test compound against Escherichia coli ATCC 25922
[14] = test system: Pseudomonas aeruginosa; assay: Antimicrobial activity against Pseudomonas aeruginosa ATCC 27853
[15] = test system: Enterococcus faecium; assay: Antimicrobial activity against vancomycin-resistant Enterococcus faecium ATCC 700221
[16] = test system: Pseudomonas aeruginosa; assay: Potency index, ratio of MIC for 2-[4-[4-[6-(N,N-dimethylcarbamimidoyl)-1H-indol-2-yl]phenoxy]phenyl]-N,N-dimethyl-1H-indole-6-carboxamidine to MIC for test compound against Pseudomonas aeruginosa ATCC 27853
[17] = test system: Staphylococcus aureus; assay: Antimicrobial activity against methicillin- resistant Staphylococcus aureus ATCC 33591
[18] = test system: Enterococcus faecalis; assay: Antimicrobial activity against Vancomycin-resistant Enterococcus faecalis ATCC 51299
[19] = test system: Escherichia coli; assay: Antimicrobial activity against Escherichia coli ATCC 25922
[20] = test system: Klebsiella pneumoniae; assay: Antimicrobial activity against Klebsiella pneumoniae 7
[21] = test system: Citrobacter freundii; assay: Potency index, ratio of MIC for 2-[4-[4-[6-(N,N-dimethylcarbamimidoyl)-1H-indol-2-yl]phenoxy]phenyl]-N,N-dimethyl-1H-indole-6-carboxamidine to MIC for test compound against Citrobacter freundii ATCC 43864
[22] = test system: Klebsiella pneumoniae; assay: Potency index, ratio of MIC for Levofloxacin to MIC for test compound against NDM-1 producing Klebsiella pneumoniae ATCC BAA-2146
[23] = test system: Klebsiella aerogenes; assay: Antimicrobial activity against Enterobacter aerogenes ATCC 45102

SMILES	MIC [1] [µg/mL]	MIC [2] [µg/mL]	MIC [4] [µg/mL]	MIC [6] [µg/mL]	MIC [7] [µg/mL]	MIC [8] [µg/mL]	MIC [10] [µg/mL]	MIC [11] [µg/mL]	MIC [12] [µg/mL]	MIC [14] [µg/mL]	MIC [15] [µg/mL]	MIC [17] [µg/mL]	MIC [18] [µg/mL]	MIC [19] [µg/mL]	MIC [20] [µg/mL]	MIC [23] [µg/mL]	further results
CN(C)C(=N)c1ccc2cc(-c3ccc(Oc4ccc(-c5cc6ccc(C(=N)N(C)C)cc6[nH]5)nc4)cc3)[nH]c2c1	4 (≈ 7.38 µM)	2 (≈ 3.69 µM)	4 (≈ 7.38 µM)	4 (≈ 7.38 µM)	2 (≈ 3.69 µM)	0.5 (≈ 0.923 µM)	0.25 (≈ 0.462 µM)	0.125 (≈ 0.231 µM)	64 (≈ 118 µM)	32 (≈ 59.1 µM)	1 (≈ 1.85 µM)	0.125 (≈ 0.231 µM)	0.5 (≈ 0.923 µM)	1 (≈ 1.85 µM)	2 (≈ 3.69 µM)	–	Ratio [3]: 4; Ratio [5]: 4; Ratio [9]: 4; Ratio [13]: 4; Ratio [16]: 4; Ratio [21]: 4
COc1cc(Oc2ccc(-c3cc4ccc(C(=N)N(C)C)cc4[nH]3)cc2)ccc1-c1cc2ccc(C(=N)N(C)C)cc2[nH]1	8 (≈ 14 µM)	4 (≈ 7.01 µM)	8 (≈ 14 µM)	8 (≈ 14 µM)	8 (≈ 14 µM)	0.5 (≈ 0.876 µM)	0.25 (≈ 0.438 µM)	0.25 (≈ 0.438 µM)	64 (≈ 112 µM)	128 (≈ 224 µM)	1 (≈ 1.75 µM)	0.25 (≈ 0.438 µM)	0.5 (≈ 0.876 µM)	2 (≈ 3.5 µM)	8 (≈ 14 µM)	–	Ratio [22]: 16
C/N=C(\NC)c1ccc2cc(-c3ccc(Oc4ccc(-c5cc6ccc(/C(=N\C)NC)cc6[nH]5)cc4)cc3)[nH]c2c1	> 128	> 128	> 128	> 128	128 (≈ 237 µM)	8 (≈ 14.8 µM)	–	8 (≈ 14.8 µM)	–	> 128	–	8 (≈ 14.8 µM)	16 (≈ 29.6 µM)	64 (≈ 118 µM)	–	> 128	–
C[C@H]1COc2c(N3CCN(C)CC3)c(F)cc3c(=O)c(C(=O)O)cn1c23.C[C@H]1COc2c(N3CCN(C)CC3)c(F)cc3c(=O)c(C(=O)O)cn1c23.O [LEVOFLOXACIN]	0.125	0.03	2	0.125	> 128	1	0.25	0.25	0.25	–	32	0.25	1	–	16	0.25	–
